Consider 23 molecules from PubChem BioAssay AID248 (DTP/NCI, 2004).

Each structure is given as a SMILES string. Values joined by “and” are separate entries in the source; they are usually repeats but may differ in a detail not shown here. Equal values may be shown once. Inconclusive results and toxic doses are left out.

The experiment relates to L1210 leukemia ip in BDF1 mice, survival T/C. As to the kind of experiment: NCI In Vivo Anticancer Drug Screen. Data for tumor model L1210 Leukemia (intraperitoneal) in B6D2F1 (BDF1) mice. As to conditions: endpoint: mean survival time, higher = longer survival. The method in brief: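 Survival endpoint. Drug-treated group vs vehicle group, expressed as T divided by C. Tumor passaged by transplantation.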

Setting [1] is: dose: 100.0 mg/kg/injection, schedule: Q01DX009 (ip), vehicle: Klucel (hydroxypropylcellulose) (HPC).
[2] abbreviates: dose: 100.0 mg/kg/injection, schedule: Q04DX003 (ip), vehicle: Klucel (hydroxypropylcellulose) (HPC).
Where [3] appears, read: dose: 200.0 mg/kg/injection, schedule: Q01DX009 (ip), vehicle: Klucel (hydroxypropylcellulose) (HPC).
Where [4] appears, read: dose: 200.0 mg/kg/injection, schedule: Q04DX003 (ip), vehicle: Klucel (hydroxypropylcellulose) (HPC).
[5] abbreviates: dose: 400.0 mg/kg/injection, schedule: Q01DX009 (ip), vehicle: Klucel (hydroxypropylcellulose) (HPC).
[6] abbreviates: dose: 400.0 mg/kg/injection, schedule: Q04DX003 (ip), vehicle: Klucel (hydroxypropylcellulose) (HPC).
Where [7] appears, read: dose: 75.0 mg/kg/injection, schedule: Q01DX001 (ip), vehicle: saline.
[8] abbreviates: dose: 100.0 mg/kg/injection, schedule: Q01DX001 (ip), vehicle: Klucel (hydroxypropylcellulose) (HPC).
[9] abbreviates: dose: 200.0 mg/kg/injection, schedule: Q01DX001 (ip), vehicle: Klucel (hydroxypropylcellulose) (HPC).
Where [10] appears, read: dose: 400.0 mg/kg/injection, schedule: Q01DX001 (ip), vehicle: Klucel (hydroxypropylcellulose) (HPC).
Setting [11] is: dose: 200.0 mg/kg/injection, schedule: Q01DX009 (ip), vehicle: saline.
[12] abbreviates: dose: 100.0 mg/kg/injection, schedule: Q01DX001 (ip), vehicle: other.
The mark [13] stands for this setting: dose: 200.0 mg/kg/injection, schedule: Q01DX001 (ip), vehicle: other.
Setting [14] is: dose: 100.0 mg/kg/injection, schedule: Q04DX002 (ip), vehicle: Klucel (hydroxypropylcellulose) (HPC).
[15] abbreviates: dose: 200.0 mg/kg/injection, schedule: Q04DX002 (ip), vehicle: Klucel (hydroxypropylcellulose) (HPC).
The mark [16] stands for this setting: dose: 400.0 mg/kg/injection, schedule: Q04DX002 (ip), vehicle: Klucel (hydroxypropylcellulose) (HPC).
Where [17] appears, read: dose: 100.0 mg/kg/injection, schedule: Q01DX001 (ip), vehicle: saline with Tween-80.
The mark [18] stands for this setting: dose: 100.0 mg/kg/injection, schedule: Q01DX009 (ip), vehicle: saline with Tween-80.
The mark [19] stands for this setting: dose: 200.0 mg/kg/injection, schedule: Q01DX001 (ip), vehicle: saline with Tween-80.
Setting [20] is: dose: 200.0 mg/kg/injection, schedule: Q01DX009 (ip), vehicle: saline with Tween-80.
The mark [21] stands for this setting: dose: 100.0 mg/kg/injection, schedule: Q01DX001 (ip), vehicle: saline.
Setting [22] is: dose: 200.0 mg/kg/injection, schedule: Q01DX001 (ip), vehicle: saline.
The mark [23] stands for this setting: dose: 400.0 mg/kg/injection, schedule: Q01DX001 (ip), vehicle: saline.

Take `COC(=O)C1C=CCC2C(=O)C=C(C)C(=O)C12C` (centres undefined): the T/C was 94 % of control under setting [1]; 96 % of control under setting [2]; 92 % of control under setting [3]; 100 % of control under setting [4]; 97 % of control under setting [5]; 96 % of control under setting [6].

In the case of `C=C1C(=O)OCC1C(=O)O` (centres undefined), the T/C under setting [7] was 98 % of control.

For `Nc1cc2scnc2c(N)n1`, the T/C under setting [8] was 94 % of control, the T/C under setting [9] was 91 % of control and the T/C under setting [10] was 86 % of control.

For the molecule `C/C(=N\Nc1nc2ccccc2o1)c1ccncc1`, the T/C is 105 % of control (dose: 50.0 mg/kg/injection, schedule: Q01DX009 (ip), vehicle: Klucel (hydroxypropylcellulose) (HPC)); 105 % of control under setting [1]; 116 % of control under setting [3]; 108 % of control under setting [5].

Turning to `CCCCCSc1nc(N)nc2nc[nH]c12`, the T/C is 117 % of control (dose: 50.0 mg/kg/injection, schedule: Q01DX Z (ip), vehicle: methylcellulose (MC)); 106 % of control under setting [7]; 98 % of control (dose: 135.0 mg/kg/injection, schedule: Q01DX009 (ip), vehicle: saline); 109 % of control (dose: 150.0 mg/kg/injection, schedule: Q01DX001 (ip), vehicle: saline); 104 % of control under setting [11]; 104 % of control (dose: 200.0 mg/kg/injection, schedule: Q01DX Z (ip), vehicle: methylcellulose (MC)). Besides, the T/C is 101 % of control (dose: 300.0 mg/kg/injection, schedule: Q01DX001 (ip), vehicle: saline) and 119 % of control (dose: 300.0 mg/kg/injection, schedule: Q01DX009 (ip), vehicle: saline).

On to `O=c1nc(NO)ccn1C1CCCO1` (centres undefined), for which the T/C by setting is: (dose: 100.0 mg/kg/injection, schedule: Q01DX001 (ip), vehicle: carboxymethylcellulose (CMC)) 96 % of control; (dose: 200.0 mg/kg/injection, schedule: Q01DX001 (ip), vehicle: carboxymethylcellulose (CMC)) 100 % of control; (dose: 400.0 mg/kg/injection, schedule: Q01DX001 (ip), vehicle: carboxymethylcellulose (CMC)) 96 % of control.

Consider `Cc1c2ccc3ccccc3c2cc2cccc(Cl)c12`, for which the T/C is 97 % of control under setting [8], 98 % of control under setting [9] and 101 % of control under setting [10].

With `CCOC(=O)c1cc2cc(CC)ccc2[nH]1`, the T/C reads like this: under setting [12], 102 % of control; under setting [13], 95 % of control; (dose: 400.0 mg/kg/injection, schedule: Q01DX001 (ip), vehicle: other) 95 % of control.

Take `COc1ccc(NC(=O)Nc2onc(C)c2C)c(Cl)c1`: the T/C was 95 % of control under setting [8]; 94 % of control and 100 % of control under setting [1]; 101 % of control under setting [14]; 87 % of control under setting [2]; 97 % of control under setting [9]; 95 % of control and 88 % of control under setting [3]. For the same molecule, the T/C is, setting by setting: under setting [15], 95 % of control and 101 % of control; under setting [4], 97 % of control; under setting [10], 104 % of control; under setting [5], 93 % of control and 95 % of control; under setting [16], 96 % of control; under setting [6], 88 % of control. Moreover, under “dose: 4000.0 mg/kg/injection, schedule: Q04DX002 (ip), vehicle: Klucel (hydroxypropylcellulose) (HPC)”, the T/C was 90 % of control.

For the molecule `CCC(C)N` (centres undefined), the T/C runs as follows: (dose: 100.0 mg/kg/injection, schedule: Q04DX003 (ip), vehicle: saline) 95 % of control; (dose: 200.0 mg/kg/injection, schedule: Q04DX003 (ip), vehicle: saline) 95 % of control.

For `O=C1CC2(CCCCC2)C(=O)N1Nc1ccccc1`, the T/C is 105 % of control under setting [2], 98 % of control under setting [4] and 102 % of control under setting [6].

For `Cc1ccc(NC(=S)N2CCCCC2C)cc1C` (centres undefined), the T/C is, setting by setting: under setting [1], 98 % of control; under setting [3], 101 % of control; under setting [5], 91 % of control.

As to `C=C(C)COc1c(Cl)cc(Cl)cc1C=Nc1ccccc1`, the T/C is 101 % of control (dose: 50.0 mg/kg/injection, schedule: Q01DX009 (ip), vehicle: saline with Tween-80); 94 % of control under setting [17]; 90 % of control under setting [18]; 89 % of control under setting [19]; 104 % of control under setting [20].

For the molecule `C#CCCCCCCl`, the T/C by setting is: under setting [12], 95 % of control; under setting [13], 102 % of control.

Consider `CCOC(=O)c1cnc2c(cnn2C(C)C)c1NN`, for which the T/C under setting [2] is 99 % of control, the T/C under setting [4] was 99 % of control and the T/C under setting [6] is 96 % of control.

For `CCCCCCCC(=O)N(CCC(=O)O)C(=O)O`, the T/C was 88 % of control under setting [17]; 96 % of control under setting [19]; 107 % of control (dose: 400.0 mg/kg/injection, schedule: Q01DX001 (ip), vehicle: saline with Tween-80).

`CC(Cl)CN(N=O)C(=O)NC1CCCCC1` (centres undefined): the T/C is, setting by setting: (dose: 16.0 mg/kg/injection, schedule: Q01DX001 (ip), vehicle: other) 96 % of control; (dose: 31.0 mg/kg/injection, schedule: Q01DX001 (ip), vehicle: other) 104 % of control; (dose: 62.0 mg/kg/injection, schedule: Q01DX001 (ip), vehicle: other) 102 % of control; (dose: 125.0 mg/kg/injection, schedule: Q01DX001 (ip), vehicle: other) 104 % of control; (dose: 187.0 mg/kg/injection, schedule: Q01DX001 (ip), vehicle: other) 117 % of control; (dose: 250.0 mg/kg/injection, schedule: Q01DX001 (ip), vehicle: other) 94 % of control. In addition, the T/C was 122 % of control (dose: 375.0 mg/kg/injection, schedule: Q01DX001 (ip), vehicle: other); 167 % of control (dose: 500.0 mg/kg/injection, schedule: Q01DX001 (ip), vehicle: other); 187 % of control (dose: 750.0 mg/kg/injection, schedule: Q01DX001 (ip), vehicle: other).

In the case of `N#CC(c1ccccc1)c1ccc(F)cc1` (centres undefined), the T/C under setting [1] was 104 % of control; the T/C under setting [2] is 100 % of control; the T/C under setting [3] is 97 % of control; the T/C under setting [4] was 96 % of control; the T/C under setting [5] is 98 % of control; the T/C under setting [6] was 98 % of control.

On to `O=C(On1c(-c2ccccc2)cc2ccccc21)c1ccc([N+](=O)[O-])cc1`, for which the T/C under setting [14] is 104 % of control, the T/C under setting [15] was 111 % of control and the T/C under setting [16] was 96 % of control.

Take `COc1cc(NC(C)=O)c2ncccc2c1`: the T/C was 99 % of control under setting [18] and 106 % of control under setting [20].

`Cn1c(=O)cc(C=Nc2ccc(C(=O)O)cc2)c2ccccc21`: the T/C is 100 % of control under setting [21], 96 % of control under setting [22] and 100 % of control under setting [23].

As to `CCCCCCCCCCCCCCCC(=O)OCC1OC(CO)(OC2OC(CO)C(O)C(O)C2O)C(O)C1O` (centres undefined), the T/C under setting [1] was 91 % of control; the T/C under setting [2] is 89 % of control; the T/C under setting [3] was 94 % of control; the T/C under setting [4] was 91 % of control; the T/C under setting [6] was 98 % of control.

Take `O=C1/C(=C/c2ccc(Cl)cc2)CCc2ccccc21`: the T/C is 101 % of control under setting [21]; 97 % of control (dose: 100.0 mg/kg/injection, schedule: Q01DX009 (ip), vehicle: saline); 101 % of control under setting [22]; 96 % of control under setting [11]; 97 % of control under setting [23]; 86 % of control (dose: 400.0 mg/kg/injection, schedule: Q01DX009 (ip), vehicle: saline).
